What was measured:
Type in all cases: functional, cell-based
ECa-109 cell line = test: Antiproliferative activity against human EC109 cells assessed as inhibition of cell growth by SRB assay
HeLa = test: Antiproliferative activity against human HeLa cells assessed as inhibition of cell growth by SRB assay
MGC-803 = test: Antiproliferative activity against human MGC-803 cells assessed as inhibition of cell growth by SRB assay
MCF7 = test: Antiproliferative activity against human MCF7 cells assessed as inhibition of cell growth by SRB assay

Structure (SMILES)	IC50 (ECa-109 cell line)	IC50 (HeLa)	IC50 (MGC-803)	IC50 (MCF7)
COc1cccc(NC2=CC(=O)c3c(nc4n3[C@H]3OC[C@@H](O)[C@H]3OC4)C2=O)c1	3.34 µM	> 8 µM	1.79 µM	3.83 µM
O=C1C=C(Nc2ccccc2)C(=O)c2c1nc1n2[C@H]2OC[C@@H](O)[C@H]2OC1	4.97 µM	5.62 µM	1.73 µM	> 4 µM
O=C1C=C(Nc2ccc(Br)cc2)C(=O)c2c1nc1n2[C@H]2OC[C@@H](O)[C@H]2OC1	2.85 µM	3.83 µM	1.01 µM	2.58 µM
O=C1C(Nc2ccc(I)cc2)=CC(=O)c2c1nc1n2[C@H]2OC[C@@H](O)[C@H]2OC1	2.53 µM	4.01 µM	2.15 µM	3.89 µM
CCOc1ccc(NC2=CC(=O)c3c(nc4n3C[C@@H]([C@H](O)CO)OC4)C2=O)cc1	7.84 µM	7.49 µM	3.46 µM	8.63 µM
CCOc1ccccc1NC1=CC(=O)c2c(nc3n2[C@H]2OC[C@@H](O)[C@H]2OC3)C1=O	4.32 µM	8.3 µM	2.83 µM	> 4 µM
Cc1ccc(NC2=CC(=O)c3c(nc4n3[C@H]3OC[C@@H](O)[C@H]3OC4)C2=O)cc1C	4.09 µM	4.32 µM	1.05 µM	4.95 µM
O=C1C=C(N2CCCC2)C(=O)c2c1nc1n2[C@H]2OC[C@@H](O)[C@H]2OC1	> 16 µM	> 16 µM	> 16 µM	> 16 µM
O=C1C=C(Nc2ccccc2)C(=O)c2c1nc1n2C[C@@H]([C@H](O)CO)OC1	> 16 µM	6.06 µM	8.07 µM	> 16 µM
CCCc1ccc(NC2=CC(=O)c3c(nc4n3C[C@@H]([C@H](O)CO)OC4)C2=O)cc1	5.12 µM	6.17 µM	4.63 µM	9.44 µM
O=C1C=C(Nc2ccccc2F)C(=O)c2c1nc1n2C[C@@H]([C@H](O)CO)OC1	7.88 µM	5.86 µM	3.24 µM	9.17 µM
O=C1C=C(Nc2ccc(Br)cc2)C(=O)c2c1nc1n2C[C@@H]([C@H](O)CO)OC1	8.25 µM	4.22 µM	2.75 µM	6.13 µM
CCCN(CCC)C1=CC(=O)c2c(nc3n2[C@H]2OC[C@@H](O)[C@H]2OC3)C1=O	> 16 µM	> 16 µM	> 16 µM	> 16 µM
O=C1C(N2CCC2)=CC(=O)c2c1nc1n2[C@H]2OC[C@@H](O)[C@H]2OC1	> 16 µM	> 16 µM	> 16 µM	> 16 µM
CCOc1ccc(NC2=CC(=O)c3c(nc4n3[C@H]3OC[C@@H](O)[C@H]3OC4)C2=O)cc1	> 4 µM	14.4 µM	2.09 µM	> 4 µM
COc1ccccc1NC1=CC(=O)c2nc3n(c2C1=O)[C@H]1OC[C@@H](O)[C@H]1OC3	> 4 µM	2.95 µM	1.63 µM	> 4 µM
O=C1C(Nc2ccccc2)=CC(=O)c2c1nc1n2C[C@@H]([C@H](O)CO)OC1	8.38 µM	9.01 µM	4.67 µM	6.91 µM
O=C1C=C(N2CCCCC2)C(=O)c2c1nc1n2[C@H]2OC[C@@H](O)[C@H]2OC1	> 8 µM	> 16 µM	> 8 µM	> 8 µM
CCCc1ccc(NC2=CC(=O)c3c(nc4n3[C@H]3OC[C@@H](O)[C@H]3OC4)C2=O)cc1	> 4 µM	6.03 µM	1.92 µM	> 4 µM

Structure (SMILES)	IC50 (ECa-109 cell line)	IC50 (HeLa)	IC50 (MGC-803)	IC50 (MCF7)
O=C1C(N2CCOCC2)=CC(=O)c2c1nc1n2[C@H]2OC[C@@H](O)[C@H]2OC1		> 16 µM	> 4 µM	> 16 µM
CCOc1ccc(NC2=CC(=O)c3nc4n(c3C2=O)[C@H]2OC[C@@H](O)[C@H]2OC4)cc1	3.21 µM	3.11 µM	1.11 µM	1.43 µM
CCCN(CCC)C1=CC(=O)c2nc3n(c2C1=O)[C@H]1OC[C@@H](O)[C@H]1OC3	> 16 µM	> 16 µM	> 16 µM	> 16 µM
O=C1C(Nc2ccccc2F)=CC(=O)c2c1nc1n2C[C@@H]([C@H](O)CO)OC1	5.51 µM	> 16 µM	3.74 µM	5.15 µM
O=C1C=C(Nc2ccc(I)cc2)C(=O)c2c1nc1n2[C@H]2OC[C@@H](O)[C@H]2OC1	2.3 µM	4.07 µM	1.4 µM	2.23 µM
COc1ccccc1NC1=CC(=O)c2nc3n(c2C1=O)C[C@@H]([C@H](O)CO)OC3	> 16 µM	6.42 µM	6.61 µM	> 16 µM
Cc1ccc(NC2=CC(=O)c3c(nc4n3[C@H]3OC[C@@H](O)[C@H]3OC4)C2=O)cc1	> 4 µM	6.59 µM	1.55 µM	> 4 µM
Cc1ccc(NC2=CC(=O)c3c(nc4n3C[C@@H]([C@H](O)CO)OC4)C2=O)cc1C	> 16 µM	10.1 µM	5.46 µM	> 16 µM
COc1ccc(NC2=CC(=O)c3c(nc4n3C[C@@H]([C@H](O)CO)OC4)C2=O)cc1	10.8 µM	8.19 µM	6.76 µM	11.4 µM
O=c1[nH]cc(F)c(=O)[nH]1 [FLUOROURACIL]	11.4 µM	24.3 µM	10.3 µM	
COc1cccc(NC2=CC(=O)c3c(nc4n3C[C@@H]([C@H](O)CO)OC4)C2=O)c1	6.95 µM	6.14 µM	3.58 µM	6.61 µM
O=C1C=C(NC2CCCC2)C(=O)c2c1nc1n2[C@H]2OC[C@@H](O)[C@H]2OC1	> 16 µM	> 16 µM	> 8 µM	> 16 µM
O=C1C(NC2CCCCC2)=CC(=O)c2c1nc1n2[C@H]2OC[C@@H](O)[C@H]2OC1	> 16 µM	> 16 µM	> 8 µM	> 16 µM
O=C1C(Nc2ccccc2)=CC(=O)c2c1nc1n2[C@H]2OC[C@@H](O)[C@H]2OC1	3.56 µM	> 8 µM	1.83 µM	> 4 µM
O=C1C(N2CCCCC2)=CC(=O)c2c1nc1n2[C@H]2OC[C@@H](O)[C@H]2OC1	> 8 µM	> 16 µM	> 4 µM	> 8 µM
O=C1C=C(Nc2ccc(C(F)(F)F)cc2)C(=O)c2c1nc1n2C[C@@H]([C@H](O)CO)OC1	6.73 µM	6.09 µM	6.52 µM	11.3 µM
O=C1C(NC2CC2)=CC(=O)c2c1nc1n2[C@H]2OC[C@@H](O)[C@H]2OC1		> 16 µM	> 4 µM	> 16 µM
CN(C)C1=CC(=O)c2c(nc3n2[C@H]2OC[C@@H](O)[C@H]2OC3)C1=O		> 16 µM	> 16 µM	> 16 µM
CCN(CC)C1=CC(=O)c2c(nc3n2[C@H]2OC[C@@H](O)[C@H]2OC3)C1=O		> 16 µM	> 16 µM	> 16 µM

From ChEMBL document CHEMBL5113408, “Design, synthesis and antitumour activity of novel 5(6)-amino-benzimidazolequinones containing a fused morpholine” (Eur J Med Chem, 2022)
